Experimental data reported in patent publication US9179694B2, “Method and composition for enhancing milk production and milk component concentrations” (PURINA ANIMAL NUTRITION LLC, priority 2003, dated 2015).
Marks after values point to notes of the source that are not given here.

Assay: Lactose content of produced milk in sorbitol feeding trials
Assay type: in vivo, Holstein cows
Settings: for Lactose in Produced Milk: Pre-Partum Trial #1 (75/0/0 g/day in wk −3..−1/+1..+4/+5..+8)
Experimental: To determine the weight percent lactose, wet basis, in a liquid sample, the weight of the liquid sample is first determined. The actual weight of lactose in the liquid sample may then be determined using analysis kit number 176-303, that is available from Boehringer-Mannheim of Indianapolis, Ind. in accordance with the procedural instructions included with analysis kit number 176-303. The weight percent lactose, wet basis, in the liquid sample is then calculated by dividing the actual weight of lactose in the liquid sample by the actual weight of the liquid sample. Each cow of each of the six different trials (Control Trial #1, Control Trial #2, Pre-Partum Trial #1, Pre-Partum Trial #2, Pre/Post Trial #1, and Pre/Post Trial #2) was milked three times daily and the weight of produced milk by each cow was recorded at each milking. The milk from each cow was sampled once per week (⅓ of the sample volume from each of the three milkings occurring on the weekly milk sampling day) and was analyzed for true protein, total fat, lactose, and total solids, as detailed in the property determination and characterization techniques presented above. Additionally, samples of blood were periodically obtained from each cow during the four trials (Control Trial 2, Pre-Partum Trial #2, Pre/Post Trial #1, and Pre/Post Trial #2) encompassed in Example Two and were analyzed for non-esterified fatty acid (NEFA) content as detailed in the property determination and characterization techniques presented above. No NEFA analysis was conducted on the cows employed in Control Trial #1 or Pre-Partum Trial #1 that are the subject of Example One. Example One includes Control Trial #1 and Pre-Partum Trial #1. Both primiparious cows and multiparious cows were included in Control Trial #1 and Pre-Partum Trial #1. Five primiparious cows and fifteen multiparious cows were included in Control Trial #1; likewise, five primiparious cows and fifteen multiparious cows were included in Pre-Partum Trial #1. All cows included in Control Trial #1 and Pre-Partum Trial #1 were Holsteins. Example Two includes Control Trial #2, Pre-Partum Trial #2, Pre/Post Trial #1, and Pre/Post Trial #2. Only multiparious, Holstein cows were included in Control Trial #2, Pre-Partum Trial #1, Pre/Post Trial #1, and Pre/Post Trial #2. Eighteen multiparious cows were included in both Control Trial #2 and Pre-Partum Trial #2, while sixteen multiparious cows were included in Pre/Post Trial #1 and seventeen multiparious cows were included in Pre/Post Trial #2.

## OC[C@@H](O)[C@@H](O)[C@H](O)[C@@H](O)CO [sorbitol]
Multiparious cows, weeks +1 through +8
  Lactose in Produced Milk: 4.77 wt %
Primiparious cows, weeks +1 through +8
  Lactose in Produced Milk: 4.98 wt %
Pre-Partum Trial #1 (75 g/day wk −3..−1 only) versus Control Trial #1, primiparious cows, weeks +1 through +8
  increase in lactose concentration in the produced milk: 5.1%
Pre-Partum Trial #2 (75/0/100 g/day in wk −3..−1/+1..+4/+5..+8), multiparious cows, week +1
  Lactose Content of Produced Milk: 4.42 weight %
Pre-Partum Trial #2 (75/0/100 g/day in wk −3..−1/+1..+4/+5..+8), multiparious cows, week +2
  Lactose Content of Produced Milk: 4.69^a weight %
Pre-Partum Trial #2 (75/0/100 g/day in wk −3..−1/+1..+4/+5..+8), multiparious cows, week +3
  Lactose Content of Produced Milk: 4.74^a weight %
Pre-Partum Trial #2 (75/0/100 g/day in wk −3..−1/+1..+4/+5..+8), multiparious cows, week +4
  Lactose Content of Produced Milk: 4.75^a weight %
Pre-Partum Trial #2 (75/0/100 g/day in wk −3..−1/+1..+4/+5..+8), multiparious cows, week +5
  Lactose Content of Produced Milk: 4.74^a weight %
Pre-Partum Trial #2 (75/0/100 g/day in wk −3..−1/+1..+4/+5..+8), multiparious cows, week +6
  Lactose Content of Produced Milk: 4.75^a weight %
Pre-Partum Trial #2 (75/0/100 g/day in wk −3..−1/+1..+4/+5..+8), multiparious cows, week +7
  Lactose Content of Produced Milk: 4.77^a weight %
Pre-Partum Trial #2 (75/0/100 g/day in wk −3..−1/+1..+4/+5..+8), multiparious cows, week +8
  Lactose Content of Produced Milk: 4.76^a weight %
Pre-Partum Trial #2 (75/0/100 g/day in wk −3..−1/+1..+4/+5..+8), multiparious cows, weeks +1 through +4
  Lactose Content of Produced Milk: 4.65 weight %
Pre-Partum Trial #2 (75/0/100 g/day in wk −3..−1/+1..+4/+5..+8), multiparious cows, weeks +5 through +8
  Lactose Content of Produced Milk: 4.76^a weight %
Pre/Post Trial #1 (150/125/100 g/day in wk −3..−1/+1..+4/+5..+8), multiparious cows, week +1
  Lactose Content of Produced Milk: 4.55 weight %
Pre/Post Trial #1 (150/125/100 g/day in wk −3..−1/+1..+4/+5..+8), multiparious cows, week +1, two-trial comparison with Control Trial #2 (Table 25)
  Lactose Content of Produced Milk: 4.55 weight %
Pre/Post Trial #1 (150/125/100 g/day in wk −3..−1/+1..+4/+5..+8), multiparious cows, week +2
  Lactose Content of Produced Milk: 4.79^ab weight %
Pre/Post Trial #1 (150/125/100 g/day in wk −3..−1/+1..+4/+5..+8), multiparious cows, week +2, two-trial comparison with Control Trial #2 (Table 25)
  Lactose Content of Produced Milk: 4.79 weight %
Pre/Post Trial #1 (150/125/100 g/day in wk −3..−1/+1..+4/+5..+8), multiparious cows, week +3
  Lactose Content of Produced Milk: 4.87^ab weight %
Pre/Post Trial #1 (150/125/100 g/day in wk −3..−1/+1..+4/+5..+8), multiparious cows, week +3, two-trial comparison with Control Trial #2 (Table 25)
  Lactose Content of Produced Milk: 4.87 weight %
Pre/Post Trial #1 (150/125/100 g/day in wk −3..−1/+1..+4/+5..+8), multiparious cows, week +4
  Lactose Content of Produced Milk: 4.90^b weight %
Pre/Post Trial #1 (150/125/100 g/day in wk −3..−1/+1..+4/+5..+8), multiparious cows, week +4, two-trial comparison with Control Trial #2 (Table 25)
  Lactose Content of Produced Milk: 4.90 weight %
Pre/Post Trial #1 (150/125/100 g/day in wk −3..−1/+1..+4/+5..+8), multiparious cows, week +5
  Lactose Content of Produced Milk: 4.93^c weight %
Pre/Post Trial #1 (150/125/100 g/day in wk −3..−1/+1..+4/+5..+8), multiparious cows, week +5, two-trial comparison with Control Trial #2 (Table 25)
  Lactose Content of Produced Milk: 4.93 weight %
Pre/Post Trial #1 (150/125/100 g/day in wk −3..−1/+1..+4/+5..+8), multiparious cows, week +6
  Lactose Content of Produced Milk: 4.90^ab weight %
Pre/Post Trial #1 (150/125/100 g/day in wk −3..−1/+1..+4/+5..+8), multiparious cows, week +6, two-trial comparison with Control Trial #2 (Table 25)
  Lactose Content of Produced Milk: 4.90 weight %
Pre/Post Trial #1 (150/125/100 g/day in wk −3..−1/+1..+4/+5..+8), multiparious cows, week +7
  Lactose Content of Produced Milk: 4.90^ab weight %
Pre/Post Trial #1 (150/125/100 g/day in wk −3..−1/+1..+4/+5..+8), multiparious cows, week +7, two-trial comparison with Control Trial #2 (Table 25)
  Lactose Content of Produced Milk: 4.90 weight %
Pre/Post Trial #1 (150/125/100 g/day in wk −3..−1/+1..+4/+5..+8), multiparious cows, week +8
  Lactose Content of Produced Milk: 4.84^ab weight %
Pre/Post Trial #1 (150/125/100 g/day in wk −3..−1/+1..+4/+5..+8), multiparious cows, week +8, two-trial comparison with Control Trial #2 (Table 25)
  Lactose Content of Produced Milk: 4.84 weight %
Pre/Post Trial #1 (150/125/100 g/day in wk −3..−1/+1..+4/+5..+8), multiparious cows, weeks +1 through +4
  Lactose Content of Produced Milk: 4.78 weight %
Pre/Post Trial #1 (150/125/100 g/day in wk −3..−1/+1..+4/+5..+8), multiparious cows, weeks +1 through +4, two-trial comparison with Control Trial #2 (Table 25)
  Lactose Content of Produced Milk: 4.78 weight %
Pre/Post Trial #1 (150/125/100 g/day in wk −3..−1/+1..+4/+5..+8), multiparious cows, weeks +1 through +8
  Lactose Content of Produced Milk: 4.83^ab weight %
Pre/Post Trial #1 (150/125/100 g/day in wk −3..−1/+1..+4/+5..+8), multiparious cows, weeks +1 through +8, two-trial comparison with Control Trial #2 (Table 25)
  Lactose Content of Produced Milk: 4.83 weight %
Pre/Post Trial #1 (150/125/100 g/day in wk −3..−1/+1..+4/+5..+8), multiparious cows, weeks +5 through +8
  Lactose Content of Produced Milk: 4.89^ab weight %
Pre/Post Trial #1 (150/125/100 g/day in wk −3..−1/+1..+4/+5..+8), multiparious cows, weeks +5 through +8, two-trial comparison with Control Trial #2 (Table 25)
  Lactose Content of Produced Milk: 4.89 weight %
Pre/Post Trial #1 (150/125/100 g/day) versus Control Trial #2, multiparious cows, weeks +1 through +4 (Table 25)
  increase in lactose concentration in milk: more than 2.5%
Pre/Post Trial #1 (150/125/100 g/day) versus Control Trial #2, multiparious cows, weeks +1 through +8 (Table 25)
  increase in lactose concentration in milk: 1.9%
Pre/Post Trial #1 (150/125/100 g/day) versus Control Trial #2, multiparious cows, weeks +5 through +8 (Table 25)
  increase in lactose concentration in milk: more than 2.5%
Pre/Post Trial #2 (75/75/100 g/day in wk −3..−1/+1..+4/+5..+8), multiparious cows, week +1
  Lactose Content of Produced Milk: 4.47 weight %
Pre/Post Trial #2 (75/75/100 g/day in wk −3..−1/+1..+4/+5..+8), multiparious cows, week +2
  Lactose Content of Produced Milk: 4.84^b weight %
Pre/Post Trial #2 (75/75/100 g/day in wk −3..−1/+1..+4/+5..+8), multiparious cows, week +3
  Lactose Content of Produced Milk: 4.92^b weight %
Pre/Post Trial #2 (75/75/100 g/day in wk −3..−1/+1..+4/+5..+8), multiparious cows, week +4
  Lactose Content of Produced Milk: 4.90^b weight %
Pre/Post Trial #2 (75/75/100 g/day in wk −3..−1/+1..+4/+5..+8), multiparious cows, week +5
  Lactose Content of Produced Milk: 4.90^bc weight %
Pre/Post Trial #2 (75/75/100 g/day in wk −3..−1/+1..+4/+5..+8), multiparious cows, week +6
  Lactose Content of Produced Milk: 4.92^b weight %
Pre/Post Trial #2 (75/75/100 g/day in wk −3..−1/+1..+4/+5..+8), multiparious cows, week +7
  Lactose Content of Produced Milk: 4.96^b weight %
Pre/Post Trial #2 (75/75/100 g/day in wk −3..−1/+1..+4/+5..+8), multiparious cows, week +8
  Lactose Content of Produced Milk: 4.93^b weight %
Pre/Post Trial #2 (75/75/100 g/day in wk −3..−1/+1..+4/+5..+8), multiparious cows, weeks +1 through +4
  Lactose Content of Produced Milk: 4.78 weight %
Pre/Post Trial #2 (75/75/100 g/day in wk −3..−1/+1..+4/+5..+8), multiparious cows, weeks +1 through +8
  Lactose Content of Produced Milk: 4.85^b weight %
Pre/Post Trial #2 (75/75/100 g/day) versus Pre-Partum Trial #2 (75/0/100 g/day), multiparious cows, weeks +1 through +8
  greater lactose concentration in milk: 3.0%
Average of means of Pre-Partum Trial #2, Pre/Post Trial #1 and Pre/Post Trial #2 versus Control Trial #2, multiparious cows, weeks +1 through +4
  increase in lactose concentration in milk: 1.7%
Average of means of Pre-Partum Trial #2, Pre/Post Trial #1 and Pre/Post Trial #2 versus Control Trial #2, multiparious cows, weeks +1 through +8
  increase in lactose concentration in milk: 1.6%
